Columns and labels:
[1] = tested on: IgG in sera containing antibodies against B. burgdorferi proteins; test: Epitope mapping of DbpB overlapping peptide library, IgG binding; set-up: species or system human; conditions: 8 high titer Lyme disease patient sera; 20-AA library peptides of DbpB, B. burgdorferi B31
Procedure: (§1) Epitope mapping of full-length DbpB was performed by ArrayIt, Corp. (Sunnyvale, Calif.). Briefly, an overlapping peptide library consisting of 20-AA long peptides overlapping by 15-AA (offset by 5-AA) was generated using the sequence for DbpB from B. burgdorferi B31 (Accession #AAC66244). The sequence submitted for mapping lacked the first 8 AA. The library was exposed to 8 sera containing antibodies against B. burgdorferi proteins, as determined by commercial Lyme immunostrips (Viramed Biotech AG, Planegg, Germany). IgM and IgG binding were independently evaluated, and data were reported in terms of fluorescent binding intensity. Peptides generated from epitope mapping data were produced by Lifetein, Inc (South Plainfield, N.J.). […]
(§2) Linear epitope mapping of DbpB was accomplished by probing overlapping peptide libraries containing full length sequences derived from the B31 strain of B. burgdorferi sensu stricto, with serum obtained from 8 Lyme disease patients with high levels of anti-Borrelia antibody as determined using commercially available Lyme disease immunoblot strips. […]

[2] = tested on: IgM in sera containing antibodies against B. burgdorferi proteins; test: Epitope mapping of DbpB overlapping peptide library, IgM binding; set-up: species or system human; conditions: 8 high titer Lyme disease patient sera; 20-AA library peptides of DbpB, B. burgdorferi B31
Procedure: as §1, §2

Substance | samples in which the peptide was bound by IgG [1] | samples in which the peptide was bound by IgM [2]
DbpB(48-67): 20-AA library peptide of DbpB from B. burgdorferi B31; one of two overlapping peptides forming DbpB(38-67) (KKEATGKGVLFEAFTGLKTG) | 100% | –
DbpB(38-57): 20-AA library peptide of DbpB from B. burgdorferi B31; one of two overlapping peptides forming DbpB(38-67) (KDLKNKILKIKKEATGKGVL) | – | 100%

Reference: patent US10006912B2, “Peptides for diagnosing lyme disease” (B[…]., priority 2013, dated 2018)
